Source: ChEMBL document CHEMBL4706668, “Minimization of apoptosis-inducing CPP-Bim peptide” (Bioorg Med Chem Lett, 2021)
Activity calls are given as the source filed them. The calls are words filed in the database; no cut-off is given here. Residues, ends and D or L forms follow the SMILES beside them.

Assays:
CHO [1] = test: Induction of apoptosis in CHO cells at 10 uM incubated for 3 hrs followed by compound washout by NucView-488 staining based fluorescence microscopy; format: cell-based, Cricetulus griseus; details: chinese hamster
HeLa [2] = test: Induction of apoptosis in human HeLa cells at 10 uM incubated for 3 hrs followed by compound washout by NucView-488 staining based fluorescence microscopy; format: functional, cell-based
[3] = Drug distribution in cytosol of human HeLa cells at 2 uM incubated for 3 hrs followed by compound washout and subsequent irradiation with mercury lamp at 10J/cm2 using Alexa Fluor-546 labeled compound by fluorescence microscopy; format: ADME, subcellular
HeLa [4] = test: Induction of apoptosis in human HeLa cells at 10 uM incubated for 3 hrs followed by compound washout by NucView-488 staining based fluorescence microscopy relative to control; format: functional
CHO [5] = test: Induction of apoptosis in CHO cells at 10 uM incubated for 3 hrs followed by compound washout by NucView-488 staining based fluorescence microscopy relative to control; format: cell-based, Cricetulus griseus; details: chinese hamster
HeLa [6] = test: Induction of apoptosis in human HeLa cells at 2 uM incubated for 3 hrs followed by compound washout and subsequent irradiation with mercury lamp at 10J/cm2 and further incubated for 3 hrs using Alexa Fluor-546 labeled compound by fluorescence microscopy; format: functional, cell-based

With `CC[C@H](C)[C@H](NC(=O)[C@H](CCCNC(=N)N)NC(=O)[C@H](CCCNC(=N)N)NC(=O)[C@H](CC(C)C)NC(=O)[C@H](CCC(=O)O)NC(=O)[C@H](CS)NC(=O)[C@H](C)NC(=O)[C@@H](NC(=O)[C@H](Cc1c[nH]c2ccccc12)NC(=O)[C@@H](NC(=O)[C@H](CCCNC(=N)N)NC(=O)[C@H](CCCNC(=N)N)NC(=O)[C@H](CCCNC(=N)N)NC(=O)[C@@H](N)CCCNC(=N)N)[C@@H](C)CC)[C@@H](C)CC)C(=O)NCC(=O)N[C@@H](CC(=O)O)C(=O)N[C@@H](CCC(=O)O)C(=O)N[C@@H](Cc1ccccc1)C(=O)N[C@@H](CC(N)=O)C(=O)N[C@@H](C)C(=O)N[C@@H](Cc1ccc(O)cc1)C(=O)N[C@@H](Cc1ccc(O)cc1)C(=O)NCC(=O)N[C@@H](CS)C(=O)O` (H-RRRRIWIACELRRIGDEFNAYYGC-OH) the Activity (CHO [1]) was “Not Active” and the Activity (HeLa [2]) was “inactive”.

For H-RKKRRQRRRAQELRRIGDEFNAYYARGC-OH, the Activity (HeLa [2]) was “inactive”.

In the case of H-RKKRRQRRREIWIAQELRRIGC-OH, the Activity (HeLa [2]) is reported as “inactive”.

With H-RKKRRQRRREIWIAQELRRIGDEFGC-OH the Activity (HeLa [2]) was “inactive”.

For H-RKKRRQRRREIWIAQELRRIGDEFNAGC-OH, the Activity (HeLa [2]) was “inactive”.

For H-RKKRRQRRREIWIAQELRRIGDEFNAYYARGC-OH, the Drug uptake [3] was “Active”.

Work on H-RKKRRQRRREIWIAQELRRIGDEFNAYYGC-OH yielded an Activity (HeLa [4]) of 79% and an Activity (CHO [5]) of 44%.

For H-RKKRRQRRREIWIAQELRRIGDGC-OH, the Activity (HeLa [2]) was “inactive”.

For H-RKKRRQRRRIAQELRRIGDEFNAYYARGC-OH, the Activity (HeLa [2]) was “inactive”.

Molecule H-RKKRRQRRRIWIAQELRRIGDEFNAYYARGC-OH has an Activity (HeLa [4]) of 85% and an Activity (CHO [5]) of 31%.

With H-RKKRRQRRRIWIAQELRRIGDEFNAYYGC-OH the Drug uptake [3] was “Active” and the Activity (HeLa [6]) was “Active”.

With H-RKKRRQRRRWGC-OH the Activity (HeLa [6]) was “inactive”.

In the case of H-RKKRRQRRRWIAQELRRIGDEFNAYYARGC-OH, the Activity (HeLa [2]) is reported as “Active”.

In the case of H-RKKRRQRRRWIAQELRRIGDGC-OH, the Activity (HeLa [2]) is reported as “Active”.

For H-RRIWIAQELRRIGDEFNAYYGC-OH, the Activity (CHO [1]) was “Not Active” and the Activity (HeLa [2]) was “inactive”.

In the case of H-RRRRRRIWIAQELRRIGDEFNAYYGC-OH, the Activity (CHO [1]) is reported as “Not Active” and the Activity (HeLa [2]) is reported as “inactive”.

For H-RRRRRRRRIWIAQELRRIGDEFNAYYGC-OH, the Activity (HeLa [4]) was 70%, the Drug uptake [3] was “Active” and the Activity (HeLa [6]) was “Active”. For the same molecule, the Activity (HeLa [2]) was “Active”.
